This passage reports IC50 results from patent US20230167114A1, “MACROCYCLIC JAK INHIBITOR AND USE THEREOF” (Biopolar Hongye (Guangdong) Pharmaceutical Co., Ltd., priority 2020, published 2023).

Structures are written as SMILES.

Holding throughout (format): biochemical
The target of one test is JAK1 (Homo sapiens, UniProt P23458). The experiment in a line: JAK kinase activity, homogeneous time-resolved fluorescence (JAK1 reaction system). To be noted: ATP 2 μM, JAK1 protein 0.2 ng/μL; read-out: JAK 1 activity. As to the method: (§1) The activity measurement method of JAK kinase was to use homogeneous time-resolved fluorescence technique. The reaction was performed in 384 shallow well plates with a total reaction volume of 10 μL. The mixture of kinase protein, compound, ATP and substrate was carried out in a reaction buffer of 50 mM Hepes (pH7.0), NaN3 0.02%, BSA 0.01%, 0.1 mM orthocanadate, 5 mM MgCl2, and 1 mM DTT. After reacting for 1 hour, antibody capable of recognizing substrate phosphorylation and dye XL-615 and detection buffer (Cisbio) containing EDTA were added to the system. The reaction signal of kinase was detected by PE company's porous plate detector. The parameter settings were excitation light at 320 nm, emission light at 615 nm and 665 nm. The activity of JAK is indirectly reflected by the signal ratio of 665 nm and 615 nm. In the reaction, the background well without enzyme and the total enzyme activity well without compound were set.
(§2) The IC50 value of the compound inhibiting protein was obtained by the formula: Y=100/(1+10^((Log IC50−X)*HillSlope)).
In JAK1 reaction system, the concentration of ATP was 2 μM, and the concentration of JAK1 protein was 0.2 ng/μL.

A further test concerns the target JAK2 (Homo sapiens, UniProt O60674). The experiment in a line: JAK kinase activity, homogeneous time-resolved fluorescence (JAK2 reaction system). The following applies: ATP 2 μM, JAK2 protein 0.01 ng/μL. On the procedure:
as §1, §2
In JAK2 reaction system, the concentration of ATP was 2 μM, and the concentration of JAK2 protein was 0.01 ng/μL.

Another test addresses T1, JAK3 (Homo sapiens, UniProt P52333).
T1 sequence (P52333 1-1124): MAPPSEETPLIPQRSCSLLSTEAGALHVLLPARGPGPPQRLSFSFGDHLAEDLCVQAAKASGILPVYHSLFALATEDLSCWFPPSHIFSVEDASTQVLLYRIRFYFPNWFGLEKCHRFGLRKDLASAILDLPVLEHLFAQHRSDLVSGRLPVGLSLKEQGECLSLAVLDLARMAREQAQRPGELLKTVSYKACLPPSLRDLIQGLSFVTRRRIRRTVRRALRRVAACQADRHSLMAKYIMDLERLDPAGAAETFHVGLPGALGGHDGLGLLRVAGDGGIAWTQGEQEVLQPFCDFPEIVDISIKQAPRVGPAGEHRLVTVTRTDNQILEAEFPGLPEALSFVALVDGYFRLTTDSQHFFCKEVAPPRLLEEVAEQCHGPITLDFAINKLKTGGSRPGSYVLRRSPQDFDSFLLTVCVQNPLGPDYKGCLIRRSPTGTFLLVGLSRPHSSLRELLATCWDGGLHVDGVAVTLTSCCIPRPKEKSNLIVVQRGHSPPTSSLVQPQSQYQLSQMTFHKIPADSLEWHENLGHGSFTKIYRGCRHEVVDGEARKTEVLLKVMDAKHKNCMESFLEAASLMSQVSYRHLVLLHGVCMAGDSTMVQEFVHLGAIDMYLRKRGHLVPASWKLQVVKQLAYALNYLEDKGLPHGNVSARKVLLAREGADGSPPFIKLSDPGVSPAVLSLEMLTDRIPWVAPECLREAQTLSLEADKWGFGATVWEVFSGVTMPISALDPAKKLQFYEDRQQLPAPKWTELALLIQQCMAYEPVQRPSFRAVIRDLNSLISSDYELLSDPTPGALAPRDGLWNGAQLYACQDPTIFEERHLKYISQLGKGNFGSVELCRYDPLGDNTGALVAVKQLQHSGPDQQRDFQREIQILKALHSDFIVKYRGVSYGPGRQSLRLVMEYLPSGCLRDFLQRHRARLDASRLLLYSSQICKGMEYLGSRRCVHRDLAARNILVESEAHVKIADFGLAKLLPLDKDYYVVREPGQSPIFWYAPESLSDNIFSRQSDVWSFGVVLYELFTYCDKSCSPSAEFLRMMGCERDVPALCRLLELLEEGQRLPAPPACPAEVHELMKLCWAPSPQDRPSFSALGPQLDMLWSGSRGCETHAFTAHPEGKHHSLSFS
The experiment in a line: JAK kinase activity, homogeneous time-resolved fluorescence (JAK3 reaction system). The following applies: ATP 2 μM, JAK3 protein 0.04 ng/μL; read-out: JAK 3 activity. On the procedure: as §1, §2
In JAK3 reaction system, the concentration of ATP was 2 μM, and the concentration of JAK3 protein was 0.04 ng/μL.

A further test has as its target TYK2 (Homo sapiens, UniProt P29597). The experiment in a line: JAK kinase activity, homogeneous time-resolved fluorescence (TYK2 reaction system). To be noted: ATP 2 μM, TYK2 protein 0.2 ng/μL; read-out: TYK 2 activity. As to the method:
as §1, §2
In TYK2 reaction system, the concentration of ATP was 2 μM and the concentration of TYK2 protein was 0.2 ng/μL.

TYK2, sequence (P29597 whole entry): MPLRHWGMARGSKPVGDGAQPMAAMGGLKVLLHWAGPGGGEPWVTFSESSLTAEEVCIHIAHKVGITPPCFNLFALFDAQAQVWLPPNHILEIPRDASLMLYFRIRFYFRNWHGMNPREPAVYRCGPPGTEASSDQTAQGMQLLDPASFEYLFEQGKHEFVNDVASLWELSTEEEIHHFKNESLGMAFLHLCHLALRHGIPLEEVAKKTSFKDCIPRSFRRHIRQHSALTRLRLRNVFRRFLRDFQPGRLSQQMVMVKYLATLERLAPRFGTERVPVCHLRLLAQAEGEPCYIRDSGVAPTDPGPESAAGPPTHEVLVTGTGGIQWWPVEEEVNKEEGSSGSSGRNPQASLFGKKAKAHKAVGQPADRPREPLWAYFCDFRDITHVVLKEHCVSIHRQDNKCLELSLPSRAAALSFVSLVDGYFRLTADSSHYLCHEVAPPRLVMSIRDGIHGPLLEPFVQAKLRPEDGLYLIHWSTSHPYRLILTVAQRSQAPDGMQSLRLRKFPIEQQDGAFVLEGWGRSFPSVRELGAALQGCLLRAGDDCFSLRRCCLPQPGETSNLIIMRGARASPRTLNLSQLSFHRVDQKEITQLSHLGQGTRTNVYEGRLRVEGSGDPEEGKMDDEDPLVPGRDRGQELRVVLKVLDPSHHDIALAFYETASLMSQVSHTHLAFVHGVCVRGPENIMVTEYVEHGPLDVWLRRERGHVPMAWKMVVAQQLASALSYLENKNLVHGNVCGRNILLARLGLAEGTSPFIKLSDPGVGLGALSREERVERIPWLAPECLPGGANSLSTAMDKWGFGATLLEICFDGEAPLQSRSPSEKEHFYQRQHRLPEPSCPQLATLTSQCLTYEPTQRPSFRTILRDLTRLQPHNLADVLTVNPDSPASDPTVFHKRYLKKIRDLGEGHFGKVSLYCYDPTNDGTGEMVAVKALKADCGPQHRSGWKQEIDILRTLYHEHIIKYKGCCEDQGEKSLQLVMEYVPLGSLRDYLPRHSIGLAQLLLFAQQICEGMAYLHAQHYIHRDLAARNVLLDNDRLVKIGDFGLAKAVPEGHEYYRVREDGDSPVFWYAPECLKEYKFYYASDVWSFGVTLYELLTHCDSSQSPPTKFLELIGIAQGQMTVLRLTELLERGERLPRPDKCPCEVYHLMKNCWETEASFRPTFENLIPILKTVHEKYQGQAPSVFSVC
JAK1, sequence (P23458 whole entry): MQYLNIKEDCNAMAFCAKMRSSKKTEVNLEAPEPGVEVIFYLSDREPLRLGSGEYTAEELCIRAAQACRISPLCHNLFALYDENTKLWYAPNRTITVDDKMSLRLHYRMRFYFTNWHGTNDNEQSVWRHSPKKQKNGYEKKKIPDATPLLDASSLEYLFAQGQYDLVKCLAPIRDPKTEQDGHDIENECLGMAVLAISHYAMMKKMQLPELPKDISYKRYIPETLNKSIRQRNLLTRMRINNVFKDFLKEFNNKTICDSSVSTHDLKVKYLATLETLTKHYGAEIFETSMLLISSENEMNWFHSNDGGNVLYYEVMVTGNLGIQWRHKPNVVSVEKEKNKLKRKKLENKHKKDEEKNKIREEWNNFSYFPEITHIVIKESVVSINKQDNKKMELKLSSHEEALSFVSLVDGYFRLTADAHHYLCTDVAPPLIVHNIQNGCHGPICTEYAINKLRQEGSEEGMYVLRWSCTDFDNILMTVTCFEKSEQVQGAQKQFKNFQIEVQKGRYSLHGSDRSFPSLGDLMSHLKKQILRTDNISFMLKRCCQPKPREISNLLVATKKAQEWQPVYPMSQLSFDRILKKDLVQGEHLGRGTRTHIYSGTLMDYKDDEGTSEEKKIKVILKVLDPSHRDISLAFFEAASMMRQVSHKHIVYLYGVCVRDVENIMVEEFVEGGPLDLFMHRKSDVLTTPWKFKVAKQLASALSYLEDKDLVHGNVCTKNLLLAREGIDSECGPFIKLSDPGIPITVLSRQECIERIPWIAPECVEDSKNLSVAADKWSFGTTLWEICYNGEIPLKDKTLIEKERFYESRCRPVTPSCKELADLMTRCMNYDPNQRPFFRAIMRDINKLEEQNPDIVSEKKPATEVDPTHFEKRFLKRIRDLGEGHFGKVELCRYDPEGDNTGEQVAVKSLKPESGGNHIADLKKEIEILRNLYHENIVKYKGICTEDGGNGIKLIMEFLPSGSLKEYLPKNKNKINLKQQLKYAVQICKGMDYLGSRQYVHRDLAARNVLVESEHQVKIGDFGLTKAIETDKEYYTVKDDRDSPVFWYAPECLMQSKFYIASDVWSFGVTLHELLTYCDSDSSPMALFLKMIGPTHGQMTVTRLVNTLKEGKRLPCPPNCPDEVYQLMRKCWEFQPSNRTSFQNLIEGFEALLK
JAK2, sequence (O60674 whole entry): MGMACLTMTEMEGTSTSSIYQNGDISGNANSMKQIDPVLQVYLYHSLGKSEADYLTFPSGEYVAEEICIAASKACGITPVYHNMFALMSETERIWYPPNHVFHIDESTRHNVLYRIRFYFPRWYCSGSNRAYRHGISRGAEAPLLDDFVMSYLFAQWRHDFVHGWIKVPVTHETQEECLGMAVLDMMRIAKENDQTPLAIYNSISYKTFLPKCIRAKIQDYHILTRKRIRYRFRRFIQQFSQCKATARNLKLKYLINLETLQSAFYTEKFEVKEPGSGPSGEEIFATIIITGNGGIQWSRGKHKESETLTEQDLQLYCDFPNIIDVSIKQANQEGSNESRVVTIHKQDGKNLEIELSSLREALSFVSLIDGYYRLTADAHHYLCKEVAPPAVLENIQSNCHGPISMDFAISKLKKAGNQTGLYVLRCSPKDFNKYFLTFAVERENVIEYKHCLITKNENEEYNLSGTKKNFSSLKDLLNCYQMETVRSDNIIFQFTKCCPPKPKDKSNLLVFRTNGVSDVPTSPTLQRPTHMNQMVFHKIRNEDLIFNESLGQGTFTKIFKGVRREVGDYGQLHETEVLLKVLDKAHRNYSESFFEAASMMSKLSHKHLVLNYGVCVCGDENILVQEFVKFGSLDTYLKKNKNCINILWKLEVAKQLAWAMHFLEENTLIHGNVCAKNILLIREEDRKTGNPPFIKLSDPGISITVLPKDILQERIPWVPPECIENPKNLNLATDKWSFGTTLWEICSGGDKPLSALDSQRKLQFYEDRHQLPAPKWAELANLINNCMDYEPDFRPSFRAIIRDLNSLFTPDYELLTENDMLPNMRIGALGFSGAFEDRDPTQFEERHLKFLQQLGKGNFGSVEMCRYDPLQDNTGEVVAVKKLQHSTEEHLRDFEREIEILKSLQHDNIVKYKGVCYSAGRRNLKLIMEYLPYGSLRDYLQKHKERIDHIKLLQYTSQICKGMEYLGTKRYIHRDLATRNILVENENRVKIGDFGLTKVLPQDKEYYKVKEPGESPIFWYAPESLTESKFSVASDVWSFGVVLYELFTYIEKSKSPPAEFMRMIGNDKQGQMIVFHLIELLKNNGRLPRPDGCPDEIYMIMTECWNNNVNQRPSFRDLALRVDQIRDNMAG

For `Cc1cnc2nc1Nc1cccc(c1)CCNC(=O)c1c(F)cc(cc1F)-c1cnc(F)c(c1)N2` [Compound 33, 1^3,1^5,2^6-trifluoro-4^5-methyl-3,5,9-triaza-4(2,4)-pyrimidina-2(3,5)-pyridina-1(1,4),6(1,3)-dibenzenacyclodecaphan-10-one], the IC50 at JAK1 was 101 to 1000 nM; at JAK2, 101 to 1000 nM; at JAK3, 1000 to 10000 nM; at TYK2 it was > 10000 nM.

With `Cc1cnc2nc1NCCCCCNC(=O)c1ccc(c(F)c1F)-c1cnc(F)c(c1)N2` [Compound 34, 1^2,l^3,2^6-trifluoro-4^5-methyl-3,5,11-triaza-4(2,4)-pyrimidina-2(3,5)-pyridina-1(1,4)-benzenacydododecaphan-12-one], the IC50 on JAK1 was 101 to 1000 nM; at JAK2, 101 to 1000 nM; at JAK3, 101 to 1000 nM; at TYK2, > 10000 nM.

In the case of `Cc1cnc2nc1Nc1cccc(c1)CCCC(=O)N1CCN(CC1)c1cnc(F)c(c1)N2` [Compound 35, 2^6-fluoro-4^5-methyl-3,5-diaza-4(2,4)-pyrimidina-1(1,4)-piperazina-2(3,5)-pyridina-6(1,3)-benzenacyclodecaphan-10-one], the IC50 at JAK1 was < 10 nM; at JAK2, 11 to 100 nM; on JAK3 it was 101 to 1000 nM; on TYK2 it was 101 to 1000 nM.

On to `COC(=O)c1cc2ccc1C(=O)NCCCc1cccc(c1)Nc1nc(ncc1C)Nc1cc-2cnc1F` [Compound 36, Methyl 2^6-fluoro-4^5-methyl-11-oxo-3,5,10-triaza-4(2,4)-pyrimidina-2(3,5)-pyridina-1(1,4),6(1,3)-dibenzenacycloundecaphan-1^3-carboxylate], for which the IC50 was < 10 nM on JAK1, < 10 nM against JAK2, 11 to 100 nM at JAK3 and 101 to 1000 nM at TYK2.

For the compound `Cc1cnc2nc1Nc1cccc(c1)CCCNC(=O)c1ccc(cc1C(=O)O)-c1cnc(F)c(c1)N2` [Compound 37, 2^6-fluoro-4^5-methyl-11-oxo-3,5,10-triaza-4(2,4)-pyrimidina-2(3,5)-pyridina-1(1,4),6(1,3)-dibenzenacycloundecaphan-1^3 - formic acid], the IC50 on JAK1 lay in the range of 11 to 100 nM; against JAK2, 11 to 100 nM; on JAK3, 101 to 1000 nM; on TYK2, 1000 to 10000 nM.

For the compound `Cc1cnc2nc1Nc1cccc(c1)CCCNC(=O)c1ccc(cc1[N+](=O)[O-])-c1cnc(F)c(c1)N2` [Compound 38, 2^6-fluoro-4^5-methyl-1^3-nitro-3,5,10-triaza-4(2,4)-pyrimidina-2(3,5)-pyridina-1(1,4),6(1,3)-dibenzenacycloundecaphan-11-one], the IC50 is < 10 nM on JAK1, < 10 nM on JAK2, 11 to 100 nM at JAK3 and 101 to 1000 nM on TYK2.

Turning to `Cc1cnc2nc1NCCCCCNC(=O)c1c(F)cc(cc1F)-c1cnc(F)c(c1)N2` [Compound 39, 1^3,1^5,2^6-trifluoro-4^5-methyl-3,5,11-triaza-4(2,4)-pyrimidina-2(3,5)-pyridina-1(1,4)-benzenacyclododecaphan-12-one], the IC50 on JAK1 is 1000 to 10000 nM; against JAK2, 101 to 1000 nM; at JAK3, 1000 to 10000 nM; at TYK2, > 10000 nM.

Turning to `CNC(=O)c1cc2ccc1C(=O)NCCCCCNc1nc(ncc1C)Nc1cc-2cnc1F` [Compound 40, 2^6-fluoro-N,4^5-dimethyl-12-oxo-3,5,11-triaza-4(2,4)-pyrimidina-2(3,5)-pyridina-1(1,4)-benzenacyclododecaphane-1^3-formamide], the IC50 at JAK1 was 101 to 1000 nM; on JAK2, 1000 to 10000 nM; at JAK3, 1000 to 10000 nM; on TYK2, > 10000 nM.

`Cc1cnc2nc1NCCCCCNC(=O)c1ccc(cc1C(=O)NCc1ccccc1)-c1cnc(F)c(c1)N2` [Compound 41, N-benzyl-2^6-fluoro-4^5-methyl-12-oxo-3,5,11-triaza-4(2,4)-pyrimidina-2(3,5)-pyridina-1(1,4)-benzenacyclododecaphane-1^3-formamide]: the IC50 was 1000 to 10000 nM on JAK1, 1000 to 10000 nM against JAK2, 1000 to 10000 nM at JAK3 and > 10000 nM at TYK2.

For `Cc1cnc2nc1NCCCCCNC(=O)c1ccc(cc1C(=O)Nc1ccccc1)-c1cnc(F)c(c1)N2` [Compound 42, 2^6-fluoro-4^5-methyl-12-oxo-N-phenyl-3,5,11-triaza-4(2,4)-pyrimidina-2(3,5)-pyridina-1(1,4)-benzenacyclododecaphane-1^3-formamide], the IC50 is 1000 to 10000 nM on JAK1, 1000 to 10000 nM against JAK2, 1000 to 10000 nM at JAK3 and > 10000 nM on TYK2.

For `CC(=O)Nc1cc2ccc1C(=O)NCCCCCNc1nc(ncc1C)Nc1cc-2cnc1F` [Compound 43, N-(2^6-fluoro-4^5-methyl-12-oxo-3,5,11-triaza-4(2,4)-pyrimidina-2(3,5)-pyridina-1(l,4)-benzenacyclododecaphane-1^3-yl) acetamide], the IC50 on JAK1 is 101 to 1000 nM; on JAK2 it was 101 to 1000 nM; at JAK3, 101 to 1000 nM; at TYK2, > 10000 nM.

As for `CCNc1cc2ccc1C(=O)NCCCCCNc1nc(ncc1C)Nc1cc-2cnc1F` [Compound 44, 1^3-(ethylamino)-2^6-difluoro-4^5-methyl-3,5,11-triaza-4(2,4)-pyrimidina-2(3,5)-pyridina-1(1,4)-benzenacyclododecaphan-12-one], the IC50 at JAK1 is 1000 to 10000 nM; against JAK2 it was 1000 to 10000 nM; on JAK3 it was > 10000 nM; at TYK2, > 10000 nM.

For `Cc1cnc2nc1Nc1cc(ccc1F)CCCNC(=O)c1ncc(cc1F)-c1cnc(F)c(c1)N2` [Compound 45, 1^3,2^6,6^6-trifluoro-4^5-methyl-3,5,10-triaza-4(2,4)-pyrimidina-1(5,2),2(3,5)-bipyridina-6(1,3)-benzenacycloundecaphan-11-one], the IC50 on JAK1 fell in the range of 11 to 100 nM; on JAK2 it was 11 to 100 nM; at JAK3 it was 101 to 1000 nM; on TYK2, 1000 to 10000 nM.

As for `Cc1cnc2nc1Nc1cc(F)cc(c1)CCNC(=O)c1ccc(cc1S(C)(=O)=O)-c1cnc(F)c(c1)N2` [Compound 46, 2^6,6^5-difluoro-4^5-methyl-1^3(methylsulfonyl)-3,5,9-triaza-4(2,4)-pyrimidina-2(3,5)-pyridina-1(1,4),6(1,3)-dibenzenacyclodecaphan-10-one], the IC50 at JAK1 was < 10 nM; on JAK2, < 10 nM; on JAK3, 11 to 100 nM; on TYK2, 101 to 1000 nM.

As to `COc1cc2cc(c1)Nc1nc(ncc1C)Nc1cc(cnc1F)-c1ccc(cc1)C(=O)NCC2` [Compound 47, 2^6-fluoro-6^5-methoxy-4^5-methyl-3,5,9-triaza-4(2,4)-pyrimidina-2(3,5)-pyridina-1(1,4),6(1,3)-dibenzenacyclodecaphan-10-one], the IC50 on JAK1 is 101 to 1000 nM; on JAK2, 101 to 1000 nM; on JAK3, 1000 to 10000 nM; at TYK2, > 10000 nM.
